Laboratory results from patent publication US9663463B2, “3-azabicyclo[3.1.0]hexane derivative and use thereof for medical purpose” (priority 2013, dated 2017).
Counter-ions that a name gives are not always drawn. Like-named read-outs stand apart in the source and are kept apart here.

Key:
[1] = Plasma concentration of test substance at ED50 value (mice, LC/MS/MS); assay type: in vivo; settings: at the ED50 value, at time of morphine administration, oral, linear regression from two doses
Experimental: The concentration of the test substances in blood plasma was confirmed by using mice of the same week-old for the same dose as that used in the evaluation of the anti-pruritic effect. The test substance was administered by forced oral administration of an administration vehicle prepared in a similar manner to that in the evaluation of the anti-pruritic effect under a non-fasting condition. The blood samples were collected from the orbital venous plexus, within from 15 minutes after the administration of the test substance to after 180 minutes at the maximum, for multiple times including the timing at which the morphine solution was intracisternally administered, under inhalation anesthesia with diethyl ether or isoflurane using a heparin-treated hematocrit tubes. The collected blood samples were immediately ice-cooled and centrifuged at 1,800 g for 15 minutes at 4° C., and the plasma fractions were transferred and stored under freezing at −30° C. or less until measurement.
The concentrations of the test substances in plasma were measured using LC/MS/MS. Furthermore, as the measurement samples for LC/MS/MS, the supernatants obtained by adding an internal standard substance and acetonitrile in an amount within a range from 5-fold to 10-fold of the amount of the plasma to the collected plasma samples, and removing proteins therefrom, was used.

human μ-opioid receptor = human μ-opioid receptor (Homo sapiens (Human), UniProt P35372); experiment: Antagonist activity test using [35S]-GTPγS bond as index using human μ-opioid receptor-expressing cell membrane; assay type: biochemical
Experimental: Cells in which a human μ-opioid receptor had been highly expressed was purchased from ChanTest (Cleveland). The cells were cultured in a carbon dioxide gas culturing apparatus by using a Ham's F12 culture medium (Invitrogen) containing 10% of fetal bovine blood serum, 1% of non-essential amino acids, 0.4 mg/ml of G418, 100 U/ml of penicillin and 100 μg/ml of streptomycin. The cultured cells were suspended by using a 0.25% trypsin 1 mM EDTA solution, the suspension was collected by using phosphate-buffered saline and centrifuged at 4° C. and 1,000 rpm for 10 minute to remove the supernatant, whereby a cell mass was obtained. […] Similar homogenization and centrifugation operations were repeated on the sediment, a homogenized buffer was added again to the obtained sediment, and the resultant was similarly homogenized to give a membrane fraction solution. The obtained membrane fraction solution was dispensed, rapidly frozen and stored under freezing at −70° C. or less until use. Furthermore, the protein concentration of the obtained membrane fraction solution was measured by using a BCA protein Assay Kit (Cat. 23227, Pierce) according to the protocol attached to the kit.
The cell membrane fraction solution in which the human μ-opioid receptor had expressed, which had been stored under freezing, was melted, a GTP assay buffer (100 mM NaCl, 5 mM MgCl2, 1 mM EDTA-containing 50 mM Hepes (pH 7.4)) was added thereto, and the resultant was homogenized repeatedly twice by using a Polytron homogenizer (SMT Multi Disperser PB95) under ice cooling at 12,000 rpm for 20 seconds to give a homogeneous solution, and the homogeneous solution was diluted to 0.036 mg/ml with a GTP assay buffer containing 18.2 μM of GDP (final concentration: […]). The dilution was incubated for 15 minutes or more under ice cooling until the reaction was initiated. […] [^35S]-GTPγS (NEG030X, Perkinelmer) was diluted with a GTP assay buffer so as to be 0.616 nM (final concentration: 0.08 nM). The resultant was diluted with a GTP assay buffer so as to be 200 nM (final concentration: 10 nM) by using [D-Ala^2, N-Me-Phe^4, Gly^5-ol]-enkephalinacetate (DAMGO, Sigma) as a μ-opioid receptor agonist. WGA Coated PVT SPA Beads (RPNQ0001, Perkinelmer) were added so as to be 20 mg/ml with a GTP assay buffer, and the resultant was suspended (final concentration: 1 mg/well). 4 μL/well of a test substance solution, 10 μL/well of a DAMGO solution, 26 μL/well of a [^35S]-GTPγS solution, […] of a suspension liquid of WGA Coated PVT SPA Beads, and 110 μL/well of the membrane fraction solution were added to a 96 well plate (1450-401, Perkinelmer), the top part of the plate was sealed, and a reaction was performed at 30° C. for 60 minutes under stirring with a plate shaker. For each measurement plate, a well to which DMSO had been added instead of the test substance, and a well to which DMSO had been added instead of the test substance and a GTP assay buffer had been added instead of the DAMGO solution were prepared. Furthermore, after the reaction was completed, the reactant was centrifuged at room temperature and 1,000 rpm for 3 minutes, and the radioactivity was measured by a microplate scintillation luminescence counter (Perkinelmer).
The IC50 value of the test substance was calculated by using Graphpad Prism 5.

hERG current = hERG current (Homo sapiens (Human), UniProt Q12809); experiment: cell-based
From the text: A: the suppression rate (%) of the test substance in each cell
B: the average suppression rate (%) of the vehicle control group

hERG = hERG (Homo sapiens (Human), UniProt Q12809); experiment: Safety margin against hERG inhibitory activity; settings: hERG IC50×1000/{concentration in plasma at ED50×(1−protein binding rate/100)}
Experimental: In order to compare the risks of extension of QT interval prolongation in the electrocardiogram among the test substances, the safety margins against the hERG inhibitory effect were calculated. […] Therefore, the following formula was used for calculating the safety margin, and the obtained values were described in Table 7. Safety margin against hERG inhibitory effect=IC50×1000/{concentration in plasma×(1−protein binding rate/100)}
IC50: the IC50 value in a hERG inhibition assay (μM)
Plasma concentration: the plasma concentration of test substance (nM) at the ED50 value in the test for evaluating the anti-pruritic effect in the morphine model
Protein binding rate: the protein binding rate (%) in the protein binding assay in murine serum

[2] = test system: pruritus mice model to which morphine had been intracisternally administered; experiment: Anti-pruritic effect in pruritus mice model to which morphine had been intracisternally administered; assay type: in vivo; settings: oral administration, male ICR mice, inhibition of morphine-induced scratching behavior
Experimental: As experimental animals, male ICR (Cr1j: CD1 (ICR): Charles River Japan) mice were used at 5 to 6-week old. The mice were placed in an acrylic cage (colorless and transparent, W 13.5 cm×D 9.5 cm×H 40 cm) for observing scratching behavior for 30 minutes or more to thereby allow the mice to get used to the observation environment, and the test substance solutions were forcedly orally administered to the test substance-administered groups. In addition, an administration vehicle was forcedly orally administered to the normal control group and the pathological control group. A necessary amount of the test substance was weighed and formed into a micropowder in an agate mortar, an administration vehicle, a 0.5 w/v % methyl cellulose 400 solution (Wako Pure Chemical Industries Ltd.) was added little by little, and preparation was performed by suspending or dissolving so as to give an intended concentration (from 0.025 to 3 mg/ml). The test doses were preset to suitable doses in the range in which the maximum dose is 30 mg/10 ml/kg.
Based on 30 minutes after the forced oral administration of the test substance as a criterion, the time for the intracisternal administration of morphine was suitably set up to 120 minutes after at the maximum, with consideration for the times of maximum plasma concentration of the respective test substances, in the case when the in vivo pharmacokinetics of the test substance had been confirmed in advance. Furthermore, saline was intracisternally administered to the normal control group, and the above-mentioned morphine solution was intracisternally administered to the pathogenic control group, so as to be 5 μL/site at the same time as that of the test substance group after the forced oral administration of the administration vehicle in either case.
The behavior of each mouse within 60 minutes from the intracisternal administration of the morphine solution or saline was recorded by a digital video camera that was installed immediately above the acrylic cage, the images were stored in a digital video recorder, and the number of frequency of the scratching behavior was measured. The number of frequency of the scratching behavior was measured with deeming a behavior in which the mouse raised its hindlimb, scratched the facial surface and the peripheral sites thereof, and got the hindlimb off from the body within 30 minutes from after the intracisternal administration of the morphine or saline as one time.
The anti-pruritic effect of each test substance was obtained as follows. As an inhibition ratio against the number of frequency of the scratching behavior on the pathological control group, the inhibition ratio (%) of the respective individuals and the average value thereof were calculated from the following formula, and an ED50 value was calculated based on the obtained inhibition ratio. Inhibition ratio of each individual (%)={1−(A−Vehicle)/(Morphine−Vehicle)}×100 Morphine: the average of the scratching number of the pathological control group Vehicle: the average of the scratching number of the normal control group A: the scratching number of each individual in the test substance-administered group

Mice serum protein = experiment: in vitro; assay type: in vitro ADME; settings: murine serum, equilibrium dialysis, 37° C., 5 to 6 hours
Experimental: (§1) The protein binding rate was determined by equilibrium dialysis method using the RED Device (8K MWCO, Rapid Equilibrium Dialysis Device, Thermo Scientific). The test substances that had been dissolved in DMSO were added to the serum that was collected from Crl: CD-1 (ICR) mice fasted overnight, so that the final concentration of DMSO became 1% (v/v). The serum to which the test substance had been added was added to the inner side of the dialysis membrane of the RED Device, and PBS (phosphate buffer saline, pH 7.4) containing 0.01% (v/v) Tween 80 was added to the outside in accordance with the method for using the RED Device and incubated at 37° C. for 5 to 6 hours with ellipsoidal shaking at 100 rpm so that the concentration of the unbound test substance in the serum and the concentration of the test substance in the PBS reached equilibrium. After the incubation was completed, the respective solutions were collected and stored under freezing at −60° C. or less as measurement samples. The proteins were removed from the measurement sample by adding acetonitrile in an amount of 5-fold or more of the amount of the internal standard substance and the serum sample, and the supernatants were measured by LC/MS/MS (liquid chromatograph—triple quadrupole mass spectrometer). The serum samples were measured after suitably diluting with distilled water as necessary.
(§2) A: the concentration of the test substance in the PBS sample
(§3) B: the concentration of the test substance in the serum sample

in vitro = in vitro ADME, mice; settings: Crl:CD-1 (ICR), mouse, pH 7.4; murine serum, equilibrium dialysis, 37° C., 5 to 6 hours; read-out: Protein binding rate (converted)
Experimental: as §1, §2, §3

Sequence of hERG current (Q12809 whole entry): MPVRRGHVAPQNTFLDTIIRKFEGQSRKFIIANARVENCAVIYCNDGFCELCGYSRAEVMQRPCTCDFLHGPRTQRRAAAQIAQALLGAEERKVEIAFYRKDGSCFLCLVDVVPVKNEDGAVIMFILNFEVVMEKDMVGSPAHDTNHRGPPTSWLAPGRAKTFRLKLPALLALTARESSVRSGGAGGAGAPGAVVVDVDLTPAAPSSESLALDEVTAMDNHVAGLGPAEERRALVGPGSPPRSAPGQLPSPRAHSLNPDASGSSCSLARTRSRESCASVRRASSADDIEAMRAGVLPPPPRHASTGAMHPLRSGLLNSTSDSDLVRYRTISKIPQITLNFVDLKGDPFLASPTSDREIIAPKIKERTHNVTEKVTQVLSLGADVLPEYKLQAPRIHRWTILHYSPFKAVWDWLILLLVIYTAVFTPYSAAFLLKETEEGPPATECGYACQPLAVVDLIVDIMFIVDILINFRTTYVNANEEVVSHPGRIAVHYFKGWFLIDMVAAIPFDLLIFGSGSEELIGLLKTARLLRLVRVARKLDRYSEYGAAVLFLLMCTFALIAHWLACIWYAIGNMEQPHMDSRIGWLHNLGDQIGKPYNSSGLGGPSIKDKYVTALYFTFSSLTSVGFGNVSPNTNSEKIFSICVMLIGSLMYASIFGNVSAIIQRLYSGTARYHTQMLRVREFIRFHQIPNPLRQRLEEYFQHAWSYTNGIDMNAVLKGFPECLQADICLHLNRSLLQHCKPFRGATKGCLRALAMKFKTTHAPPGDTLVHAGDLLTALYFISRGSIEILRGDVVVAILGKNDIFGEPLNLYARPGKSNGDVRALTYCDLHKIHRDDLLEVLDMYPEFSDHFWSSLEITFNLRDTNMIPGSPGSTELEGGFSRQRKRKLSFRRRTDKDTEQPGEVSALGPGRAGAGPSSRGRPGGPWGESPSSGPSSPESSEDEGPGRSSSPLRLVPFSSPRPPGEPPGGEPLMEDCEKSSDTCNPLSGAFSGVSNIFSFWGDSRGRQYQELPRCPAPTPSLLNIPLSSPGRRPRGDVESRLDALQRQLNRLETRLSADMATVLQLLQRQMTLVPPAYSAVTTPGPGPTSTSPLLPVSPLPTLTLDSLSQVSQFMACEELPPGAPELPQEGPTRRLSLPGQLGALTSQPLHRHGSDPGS

| SMILES | Plasma concentration of test substance [1] | IC50 (human μ-opioid receptor) | IC50 (hERG current) | Safety margin (hERG) | ED50 ([2]; Mus musculus, read-out: ED50) | Protein binding rate (Mice serum protein) | IC50 (human μ-opioid receptor; inhibition of DAMGO (10 nM)-stimulated [35S]-GTPγS binding, human μ-opioid receptor membrane, read-out: IC50) | ED50 [2] | fraction unbound (in vitro) |
| --- | --- | --- | --- | --- | --- | --- | --- | --- | --- |
| CC[C@]1(c2cccc(NS(=O)(=O)C3CC3)c2)[C@@H]2CN(CCCN3CCC(F)(F)CC3)C[C@@H]21 [Example 7-(b), N-(3-{(1R,5S,6r)-3-[3-(4,4-difluoropiperidin-1-yl)propyl]-6-ethyl-3-azabicyclo[3.1.0]hexan-6-yl}phenyl)cyclopropanesulfonamide hydrochloride] | 21.5 nM | 1.4 nM | 1200 nM | 375 | 2.4 mg/kg | – | – | – | – |
| CC[C@]1(c2cccc(NS(C)(=O)=O)c2)[C@@H]2CN(CC3(O)Cc4ccccc4C3)C[C@@H]21.CS(=O)(=O)O [Comparative compound 1, N-(3-{(1R,5S,6r)-6-ethyl-3-[(2-hydroxy-2,3-dihydro-1H-inden-2-yl)methyl]-3-azabicyclo[3.1.0]hexan-6-yl}phenyl)methanesulfonamide methanesulfonate, reference compound] | 157 nM | – | – | – | – | 93.2% | 1.3 nM | 2.6 mg/kg | – |
| CC[C@]1(c2cccc(NS(=O)(=O)C3CC3)c2)[C@@H]2CN(CC3(O)Cc4ccccc4C3)C[C@@H]21 [Example 1-(a), N-(3-{(1R,5S,6r)-6-ethyl-3-[(2-hydroxy-2,3-dihydro-1H-inden-2-yl)methyl]-3-azabicyclo[3.1.0]hexan-6-yl}phenyl)cyclopropanesulfonamide] | 70.8 nM | – | 110 nM | 82 | 3.5 mg/kg | – | – | – | 0.019 |
| C[C@]1(c2cccc(NS(=O)(=O)C3CC3)c2)[C@@H]2CN(CC3(O)Cc4ccccc4C3)C[C@@H]21 [Example 17-(b), N-(3-{(1R,5S,6r)-3-[(2-hydroxy-2,3-dihydro-1H-inden-2-yl)methyl]-6-methyl-3-azabicyclo[3.1.0]hexan-6-yl}phenyl)cyclopropanesulfonamide hydrochloride] | 68.2 nM | 5.4 nM | 130 nM | 48 | 1.5 mg/kg | – | – | – | – |
| CC[C@]1(c2cccc(NS(=O)(=O)C3CC3)c2)[C@@H]2CN(CC3(OC)Cc4ccccc4C3)C[C@@H]21 [Example 3-(b), N-(3-{(1R,5S,6r)-6-ethyl-3-[(2-methoxy-2,3-dihydro-1H-inden-2-yl)methyl]-3-azabicyclo[3.1.0]hexan-6-yl}phenyl)cyclopropanesulfonamide hydrochloride] | 48.8 nM | 3.6 nM | 580 nM | 1980 | 4.2 mg/kg | – | – | – | – |
| CC[C@]1(c2cccc(NS(=O)(=O)C3CC3)c2)[C@@H]2CN(CCCC3(OC)CCC(F)(F)CC3)C[C@@H]21 [Example 6-(b), N-(3-{(1R,5S,6r)-3-[3-(4,4-difluoro-1-methoxycyclohexyl)propyl]-6-ethyl-3-azabicyclo[3.1.0]hexan-6-yl}phenyl)cyclopropanesulfonamide hydrochloride] | – | – | 660 nM | – | 0.42 mg/kg | – | – | – | 0.039 |
